Data on six molecules can be found in EP0424538A1, “PYRIDINE DERIVATIVES AND THEIR SALTS, AND INSECTICIDAL/ACARICIDAL AGENT CONTAINING THE SAME AS ACTIVE INGREDIENT” (IDEMITSU KOSAN COMPANY LIMITED, priority 1989, dated 1990).

The structures appear in SMILES notation.

The subject of test [1] is larvae (3-periods old) of tobiirounka. Briefly: rice stalk immersion test, life or death of larvae. The test is classed as in vivo. Conditions: 168 h; rice stalk immersed 1 minute in 500 ppm chemical solution; checked after 7 days at 25 °C; read-out: % dead larvae. As to the method: A stalk of rice cut in a length of 10 cm was immersed for 1 minutes in a chemical solution of one of the compounds obtained in the examples (excepting the compound of Example 4) in a concentration of 500 ppm and, after air-drying, put into a test tube containing water, in which larvae (3-periods old) of tobiirounka were released and kept standing in a thermostatic chamber at 25 °C with a cotton plug.
After 7 days of the testing, life or death of the above mentioned larvae was checked to find 100% dead larvae with each of the compounds obtained in the examples. Comparative Test Example.
In place of the compounds used in Test Example, the same test was undertaken by using: . [drawing 136]

The test system of test [2] is cabbage maggot (Hylemya brassicae). Particulars: from Chemical Abstracts and Journal of Economic Entomology, 41, 98, 1948; cited from earlier work.

`CCCCc1cnccc1CC`: the mortality at 500 µg/mL in test [1] was 92%. With `CCCCC(CCCC)c1ccncc1` [4-(5-nonyl) pyridine], in test [2], the “activity against cabbage maggot” value is “no activity was recognized”. Take `CCCCCc1ccncc1` [4-n-amyl pyridine]: the “activity against cabbage maggot” value in test [2] is “no activity was recognized”. Turning to `C=CCC(CC=C)c1ccncc1C` [CA 85, 32850y, 1976], in test [1], the mortality at 500 µg/mL stood at 90%.

Turning to `CC(C)(C)c1ccncc1C(C)(C)C` [CA 100, 155997n, 1984], the mortality at 500 µg/mL in test [1] worked out at 92%. Turning to `Cc1cnccc1C(C)CCC1CCCCC1` (stereo not drawn) [CA 109, 6426j, 1988], the mortality at 500 µg/mL in test [1] was 98%.
